In ChEMBL document CHEMBL5241054, “Effective anti-aromatase therapy to battle against estrogen-mediated breast cancer: Comparative SAR/QSAR assessment on steroidal aromatase inhibitors” (Eur J Med Chem, 2020):

What follows are compounds tested against T1, Aromatase (Homo sapiens, UniProt P11511).
T1 sequence (P11511 whole entry): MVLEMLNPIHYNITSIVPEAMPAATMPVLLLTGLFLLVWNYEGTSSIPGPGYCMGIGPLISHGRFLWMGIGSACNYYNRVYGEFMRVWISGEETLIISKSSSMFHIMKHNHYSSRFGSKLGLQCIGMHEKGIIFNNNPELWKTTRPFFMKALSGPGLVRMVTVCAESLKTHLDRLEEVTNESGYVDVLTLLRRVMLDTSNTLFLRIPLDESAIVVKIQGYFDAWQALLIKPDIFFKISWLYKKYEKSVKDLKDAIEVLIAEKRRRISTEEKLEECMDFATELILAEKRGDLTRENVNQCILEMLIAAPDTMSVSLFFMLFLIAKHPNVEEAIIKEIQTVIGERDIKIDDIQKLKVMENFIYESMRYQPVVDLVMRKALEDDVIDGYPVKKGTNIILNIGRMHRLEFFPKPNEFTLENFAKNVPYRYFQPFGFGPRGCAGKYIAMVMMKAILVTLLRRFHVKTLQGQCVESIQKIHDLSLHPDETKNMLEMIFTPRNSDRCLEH

In order of falling IC50:
1. C[C@]12CC[C@H]3[C@@H](CCC4=CC(=O)CC[C@@]43CO)[C@@H]1C[C@@H](O)C2=O  800000 nM
2. C[C@]12CC[C@@H]3c4ccc(OC(=O)c5ccno5)cc4CC[C@H]3[C@@H]1CCC2=O  244000 nM
3. C[C@]12CCC(=O)C=C1CC[C@@H]1[C@@H]2CC[C@]2(C)C(=O)[C@H](O)C[C@@H]12  200000 nM
4. CCCCO[C@H]1C[C@@H]2[C@H](CC[C@]3(C)C(=O)CC[C@@H]23)c2ccc(O)cc21  170000 nM
5. C[C@]12CCC3[C@@H](CC(=O)[C@]45O[C@H]4CCC[C@]35C=O)C1CCC2=O (stereo partly drawn)  150000 nM
6. C[C@]12CC[C@@H]3c4cc(Br)c(O)cc4CC[C@H]3[C@@H]1CC[C@@H]2O  89900 nM
7. CCO[C@@H]1C[C@@H]2[C@H](CC[C@]3(C)C(=O)CC[C@@H]23)c2ccc(O)cc21  83900 nM
8. CC(=O)N1[C@H]2[C@@H]3[C@H](CC[C@]4(C)C(=O)CC[C@@H]34)[C@@]3(C)CCC(=O)C=C3[C@H]21  64600 nM
9. C#C[C@H](O)[C@]12CCCC=C1CC[C@@H]1[C@@H]2CC[C@]2(C)C(=O)CC[C@@H]12  61900 nM
10. C[C@]12CC[C@H]3[C@@H](C(=O)C=C4C(=O)CCC[C@@]43C)[C@@H]1CC[C@@H]2O  57000 nM
11. C[C@]12C[C@@H](CCCc3ccccc3)C(=O)C=C1CC[C@@H]1[C@@H]2CC[C@]2(C)C(=O)CC[C@@H]12  50200 nM
12. C[C@]12CCC(=O)C=C1[C@H](N=[N+]=[N-])C(O)[C@@H]1[C@@H]2CC[C@]2(C)C(=O)CC[C@@H]12 (stereo partly drawn)  47000 nM
13. C[C@]12CCC=CC1=CC(=O)[C@@H]1[C@@H]2CC[C@]2(C)C(O)CC[C@@H]12 (stereo partly drawn)  42000 nM
14. CCCCOC1=C[C@@]2(C)C(=CC1=O)CC[C@@H]1[C@@H]2CC[C@]2(C)C(=O)CC[C@@H]12  29600 nM
15. C[C@]12CC[C@@H]3c4ccc(O)cc4[C@H](CCCc4ccccc4)C[C@H]3[C@@H]1CC[C@@H]2O  28000 nM
16. C[C@]12CC[C@@H]3c4ccc(O)c(F)c4CC[C@H]3[C@@H]1CCC2=O  26000 nM
17. C[C@]12CC[C@H]3[C@@H](CC(=O)C4=CCCC[C@@]43CO)[C@@H]1CC[C@@H]2O  25000 nM
18. CC(=O)O[C@H]1C2=CC(=O)CC[C@]2(C)[C@H]2CC[C@]3(C)C(=O)CC[C@H]3[C@@H]2C1N=[N+]=[N-] (stereo partly drawn)  23100 nM
19. COc1cc2c(cc1O)CC[C@@H]1[C@@H]2CC[C@]2(C)[C@@H](O)CC[C@@H]12 [2-METHOXYESTRADIOL]  20000 nM
20. COc1cc2c(cc1O)CC[C@@H]1[C@@H]2CC[C@]2(C)C(=O)CC[C@@H]12  17000 nM
21. C[C@]12CC[C@H]3[C@@H](C=CC45OC4C(=O)CC[C@]35C)[C@@H]1CCC2=O (stereo partly drawn)  15300 nM
22. C[C@]12CC[C@@H]3c4ccc(O)cc4[C@H](c4ccccc4)C[C@H]3[C@@H]1CCC2=O  12000 nM
23. C[C@]12CC[C@@H]3c4cc(F)c(O)cc4CC[C@H]3[C@@H]1CCC2=O  11600 nM
24. C[C@]12CC[C@@H]3c4cc(C=O)c(O)cc4CC[C@H]3[C@@H]1CCC2=O  11000 nM
25. C[C@]12CCC(=O)C=C1[C@H](O)C[C@@H]1[C@@H]2CC[C@]2(C)C(=O)CC[C@@H]12  11000 nM
26. CC(=O)O[C@@H]1CCC[C@@]2(CO)C1=CC[C@@H]1[C@@H]2CC[C@]2(C)C(=O)CC[C@@H]12  11000 nM
27. C[C@]12CC[C@H]3[C@@H](CC=C4C(=O)CCC[C@@]43C)[C@@H]1CC[C@@H]2O  10000 nM
28. CCCCCC[C@H]1C[C@@H]2[C@H](CC[C@]3(C)C(=O)CC[C@@H]23)[C@@]2(C)CCCC=C12  8990 nM
29. CC(=O)OC1=C2C=C[C@@H]3[C@H](CC[C@]4(C)C(=O)CC[C@@H]34)[C@@]2(C)CCC1=O  8000 nM
30. C[C@]12CCC[C@H](O)C1=CC(=O)[C@@H]1[C@@H]2CC[C@]2(C)C(=O)CC[C@@H]12  6300 nM
31. C[C@]12CC[C@H]3[C@@H](CC(=O)C4=CCCC[C@@]43C=O)[C@@H]1CCC2=O  5790 nM
32. CCCCCCCC[C@H]1C[C@@H]2[C@H](CC[C@]3(C)C(=O)CC[C@@H]23)[C@@]2(C)CCC(=O)C=C12  5110 nM
33. C[C@]12CC[C@H]3[C@@H](CC[C@]4(F)[C@@H](O)C(=O)CC[C@]34C)[C@@H]1CCC2=O  2900 nM
34. C[C@]12CC[C@H]3[C@@H](CCC4=C(O)C(=O)CC[C@@]43C(F)F)[C@@H]1CCC2=O  2500 nM
35. C[C@]12CC[C@@H]3c4cc(Br)c(O)cc4CC[C@H]3[C@@H]1CCC2=O  2400 nM
36. C[C@]12CCCCC1=CC(=O)[C@@H]1[C@@H]2CC[C@]2(C)C(=O)CC[C@@H]12  2300 nM
37. C[C@]12CC[C@H]3[C@@H](CCC4=CCCC[C@@]43CO)[C@@H]1CCC2O (stereo partly drawn)  2300 nM
38. CC[C@]12CCC(=O)C=C1C(=O)C[C@@H]1[C@@H]2CC[C@]2(C)C(=O)CC[C@@H]12  2200 nM
39. C[C@]12C=C(Br)C(=O)C=C1CC[C@@H]1[C@@H]2CC[C@]2(C)C(=O)CC[C@@H]12  1840 nM
40. CCCCCCCC[C@@H]1C[C@@H]2[C@H](CC[C@]3(C)C(=O)CC[C@@H]23)[C@@]2(C)CCC(=O)C=C12  1800 nM
41. CCCC1=C[C@@]2(C)C(=CC1=O)CC[C@@H]1[C@@H]2CC[C@]2(C)C(=O)CC[C@@H]12  1750 nM
42. C[C@]12CCC(=O)C=C1[C@H](c1ccccc1)C[C@@H]1[C@@H]2CC[C@]2(C)C(=O)CC[C@@H]12  1700 nM
43. C[C@]12CC[C@H]3[C@@H](C=CC4=CC(=O)C=C[C@@]43CCl)[C@@H]1CCC2=O  1330 nM
44. CC[C@@H]1C[C@@H]2[C@H](CC[C@]3(C)C(O)CC[C@@H]23)[C@@]2(C)CCCC=C12 (stereo partly drawn)  1300 nM
45. C#CC[C@]12CCC(=O)C=C1CC[C@@H]1[C@@H]2CC[C@]2(C)C(=O)CC[C@@H]12 [PLOMESTANE]  1000 nM
46. C[C@]12CCC(=O)C=C1[C@H](Br)C[C@@H]1[C@@H]2CC[C@]2(C)C(=O)CC[C@@H]12  800 nM
47. C[C@]12C=CC(=O)C=C1[C@H](CCCc1ccccc1)C[C@@H]1[C@@H]2CC[C@]2(C)C(=O)CC[C@@H]12  700 nM
48. C[C@]12CCC(=O)C=C1[C@@H](Cc1ccccc1)C[C@@H]1[C@@H]2CC[C@]2(C)C(=O)CC[C@@H]12  661 nM
49. CCCC[C@@H]1C[C@@H]2[C@H](CC[C@]3(C)C(=O)CC[C@@H]23)[C@@]2(C)CCC(=O)C=C12  511 nM
50. C[C@]12CCC(=O)C(F)=C1CC[C@@H]1[C@@H]2CC[C@]2(C)C(=O)CC[C@@H]12  480 nM
51. CCCCC[C@H]1C[C@@H]2[C@H](CC[C@]3(C)C(=O)CC[C@@H]23)[C@@]2(C)CCC(=O)C=C12  400 nM
52. C[C@H]1C[C@@H]2[C@H](CC[C@]3(C)C(=O)CC[C@@H]23)[C@@]2(C)CCC(=O)C=C12  350 nM
53. C[C@]12C=CC(=O)C=C1[C@@H](CCCCCc1ccccc1)C[C@@H]1[C@@H]2CC[C@]2(C)C(=O)CC[C@@H]12  330 nM
54. CC1(C)C[C@@]2(C)C(=CC1=O)C(=O)C[C@@H]1[C@@H]2CC[C@]2(C)C(=O)CC[C@@H]12  300 nM
55. CC[C@]12CCC(=O)C=C1C=C[C@@H]1[C@@H]2CC[C@]2(C)C(=O)CC[C@@H]12  300 nM
56. CCC[C@H]1C[C@@H]2[C@H](CC[C@]3(C)C(=O)CC[C@@H]23)[C@@]2(C)C=CC(=O)C=C12  270 nM
57. CCCCCCC[C@H]1C[C@@H]2[C@H](CC[C@]3(C)C(=O)CC[C@@H]23)[C@@]2(C)C=CC(=O)C=C12  250 nM
58. CCC[C@H]1C[C@@H]2[C@H](CC[C@]3(C)C(=O)CC[C@@H]23)[C@@]2(C)CCCC=C12  230 nM
59. C[C@]12C=CC(=O)C=C1[C@@H](CCCCc1ccccc1)C[C@@H]1[C@@H]2CC[C@]2(C)C(=O)CC[C@@H]12  230 nM
60. CCCC[C@H]1C[C@@H]2[C@H](CC[C@]3(C)C(=O)CC[C@@H]23)[C@@]2(C)C=CC(=O)C=C12  200 nM
61. C[C@]12CCC(=O)C=C1C(c1ccccc1)=C[C@@H]1[C@@H]2CC[C@]2(C)C(=O)CC[C@@H]12  200 nM
62. C[C@]12CCC(=O)C(Sc3ccccc3)=C1CC[C@@H]1[C@@H]2CC[C@]2(C)C(=O)CC[C@@H]12  180 nM
63. C[C@]12CCC(=O)C=C1C[C@@H](Sc1ccc(N)cc1)[C@@H]1[C@@H]2CC[C@]2(C)C(=O)CC[C@@H]12  160 nM
64. CCCCCCC1=C[C@@H]2[C@H](CC[C@]3(C)C(=O)CC[C@@H]23)[C@@]2(C)C=CC(=O)C=C12  155 nM
65. C[C@]12CCCC=C1[C@H]1C[C@H]1[C@@H]1[C@@H]2CC[C@]2(C)C(=O)CC[C@@H]12  150 nM
66. CC1(C)C[C@@]2(C)C(=CC1=O)[C@@H](Br)C[C@@H]1[C@@H]2CC[C@]2(C)C(=O)CC[C@@H]12  100 nM
67. C[C@]12CCC(=O)C=C1C[C@@H](SCc1ccccc1)[C@@H]1[C@@H]2CC[C@]2(C)C(=O)CC[C@@H]12  69 nM
68. C[C@]12CCC(=O)C=C1C[C@H](Cc1ccccc1)[C@@H]1[C@@H]2CC[C@]2(C)C(=O)CC[C@@H]12  44.5 nM
